The values that follow come from patent publication US9980943B2, “Methods of treating muscular dystrophy” (BOARD OF REGENTS OF THE NEVADA SYSTEM OF HIGHER EDUCATION, …, priority 2013, dated 2018).

Holding throughout (format): cell-based, mouse
Assay [1] relates to β-galactosidase in CMV-LacZ C2C12 myotubes. Description: CMV-LacZ secondary screen in C2C12 myotubes (β-Gal stabilizing assay). The conditions noted are these: C2C12 CMV-LacZ myotubes, fold relative to DMSO. The gist of the method: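 CMV-LacZ C2C12 line (clonal, FDG-screened); myoblasts/myotubes dosed 0.5–40 μM (0.5, 1, 5, 10, 20, 40 μM); n=2 per point; β-gal stabilization read-out.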

Assay [2] concerns α7 integrin (LacZ reporter in α7βgal+/− myoblasts). Description: Myoblast α7+/LacZ integrin FDG assay (Burkin assay in myoblasts, 96-well). The following applies: α7+/LacZ myoblasts, 96-well.
Assay [3] deals with β-galactosidase in CMV-LacZ C2C12 myoblasts. Description: CMV-LacZ secondary screen in C2C12 myoblasts (β-Gal stabilizing assay). The following applies: CMV-LacZ C2C12 myoblasts. The gist of the method: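 First, C2C12 myoblasts were transfected with a linearized CMV-LACZ vector and clonal lines selected by FDG β-gal assay. Then cells were exposed to compounds at 0.5, 1, 5, 10, 20 and 40 μM in 96-well format, two replicates each, and β-gal measured.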

The subject of assay [4] is α7 integrin (LacZ reporter in α7+/LacZ myotubes). As to the kind of experiment: Myotube α7 integrin FDG assay (Burkin assay in myotubes, 96-well). The following applies: myotubes.

`Cc1cccc(C)c1NCC(=O)N1CCN(Cc2ccccc2)CC1.Cl` [MLS001176153-01]: the “CMV-LACZ in Myotubes, signal relative to DMSO” value in assay [1] (0.5 uM) came to 0.8316; in assay [1] (1 uM), 0.9832; in assay [1] (5 uM), 0.7944; in assay [1] (10 uM), 0.9388; in assay [1] (20 uM), 1.0256; in assay [1] (40 uM), 1.0878. The “Burkin Assay in Myoblasts, signal relative to DMSO” value worked out at 1.06 in assay [2] (0.5 uM); 1.045 in assay [2] (1 uM); 0.9185 in assay [2] (5 uM); 0.8767 in assay [2] (10 uM); 1.145 in assay [2] (20 uM); 1.12 in assay [2] (40 uM). Further, the “CMV-LACZ in Myoblasts (β-galactosidase activity relative to DMSO)” value is reported as 1.2729 in assay [3] (0.5 uM); 1.4588 in assay [3] (1 uM); 0.8976 in assay [3] (5 uM); 0.9140 in assay [3] (10 uM); 0.9322 in assay [3] (20 uM); 1.0763 in assay [3] (40 uM). For the same molecule, the “Burkin Assay in Myotubes, α7 integrin LacZ reporter signal relative to DMSO” value in assay [4] (0.5 uM) was 1.007; in assay [4] (1 uM) it was 1.027; in assay [4] (5 uM) it was 0.9538; in assay [4] (10 uM) it was 1.106; in assay [4] (20 uM) it was 0.9238; in assay [4] (40 uM) it was 0.9818.

For `CC1CC(C)(C)NC(=S)N1CC(=O)N(C)Cc1ccccc1` (stereo not drawn) [MLS000586245-01], the “CMV-LACZ in Myotubes, signal relative to DMSO” value in assay [1] (0.5 uM) was 1.0611; in assay [1] (1 uM) it was 1.0800; in assay [1] (5 uM), 0.9511; in assay [1] (10 uM), 1.1338; in assay [1] (20 uM), 1.2267; in assay [1] (40 uM), 1.2656. The “Burkin Assay in Myoblasts, signal relative to DMSO” value in assay [2] (0.5 uM) is listed as 0.9903; in assay [2] (1 uM), 1.049; in assay [2] (5 uM) it was 1.116; in assay [2] (10 uM), 1.244; in assay [2] (20 uM), 1.033; in assay [2] (40 uM), 1.021. For the same molecule, the “CMV-LACZ in Myoblasts (β-galactosidase activity relative to DMSO)” value in assay [3] (0.5 uM) stood at 0.9034; in assay [3] (1 uM), 0.8985; in assay [3] (5 uM) it was 0.9258; in assay [3] (10 uM), 1.0505; in assay [3] (20 uM) it was 0.7726; in assay [3] (40 uM), 0.7674. The “Burkin Assay in Myotubes, α7 integrin LacZ reporter signal relative to DMSO” value in assay [4] (0.5 uM) is reported as 1.003; in assay [4] (1 uM), 0.9584; in assay [4] (5 uM), 1.043; in assay [4] (10 uM), 1.179; in assay [4] (20 uM), 0.9426; in assay [4] (40 uM), 1.026.

Regarding `N#C/C(=C/c1ccc(N2CCOCC2)o1)C(=O)Nc1ccccc1` [MLS000689218-01], the “CMV-LACZ in Myotubes, signal relative to DMSO” value in assay [1] (0.5 uM) is reported as 0.9657; in assay [1] (1 uM), 0.9514; in assay [1] (5 uM), 1.3684; in assay [1] (10 uM), 1.2135; in assay [1] (20 uM), 1.4900; in assay [1] (40 uM), 1.7990. In addition, the “Burkin Assay in Myoblasts, signal relative to DMSO” value is given as 1.068 in assay [2] (0.5 uM); 1.171 in assay [2] (1 uM); 1.132 in assay [2] (5 uM); 1.051 in assay [2] (10 uM); 1.07 in assay [2] (20 uM); 1.037 in assay [2] (40 uM). The “CMV-LACZ in Myoblasts (β-galactosidase activity relative to DMSO)” value in assay [3] (0.5 uM) stood at 1.1977; in assay [3] (1 uM), 1.2273; in assay [3] (5 uM) it was 0.8689; in assay [3] (10 uM), 1.0813; in assay [3] (20 uM), 1.2835; in assay [3] (40 uM), 1.6337. In addition, the “Burkin Assay in Myotubes, α7 integrin LacZ reporter signal relative to DMSO” value in assay [4] (0.5 uM) is listed as 0.9663; in assay [4] (1 uM), 1.083; in assay [4] (5 uM), 0.97; in assay [4] (10 uM) it was 0.9829; in assay [4] (20 uM), 1.008; in assay [4] (40 uM) it was 0.9676.

Take `CC(=O)Nc1ccc(-n2c(C)nc(=O)c(-c3ccccc3)c2C)cc1` [MLS000078709-01]: the “CMV-LACZ in Myotubes, signal relative to DMSO” value in assay [1] (0.5 uM) came to 1.0133; in assay [1] (1 uM), 0.9257; in assay [1] (5 uM) it was 0.9348; in assay [1] (10 uM), 0.8743; in assay [1] (20 uM) it was 1.0853; in assay [1] (40 uM) it was 1.7737. Also, the “Burkin Assay in Myoblasts, signal relative to DMSO” value in assay [2] (0.5 uM) was 1.063; in assay [2] (1 uM), 0.996; in assay [2] (5 uM), 0.8157; in assay [2] (10 uM), 0.8052; in assay [2] (20 uM), 0.5171; in assay [2] (40 uM), 0.2616. Moreover, the “CMV-LACZ in Myoblasts (β-galactosidase activity relative to DMSO)” value stood at 0.8167 in assay [3] (0.5 uM); 0.7008 in assay [3] (1 uM); 0.9270 in assay [3] (5 uM); 1.0163 in assay [3] (10 uM); 0.6919 in assay [3] (20 uM); 0.4830 in assay [3] (40 uM). The “Burkin Assay in Myotubes, α7 integrin LacZ reporter signal relative to DMSO” value in assay [4] (0.5 uM) is listed as 0.8374; in assay [4] (1 uM), 0.8236; in assay [4] (5 uM), 0.9535; in assay [4] (10 uM), 0.9899; in assay [4] (20 uM), 0.6311; in assay [4] (40 uM), 0.4894.

Turning to `CC(C)(C)c1ccc(C(=O)OCC(=O)Nc2sc3c(c2C#N)CCC3)cc1` [MLS000392555-01], the “CMV-LACZ in Myotubes, signal relative to DMSO” value stood at 1.0257 in assay [1] (0.5 uM); 0.9676 in assay [1] (1 uM); 1.0094 in assay [1] (5 uM); 0.8568 in assay [1] (10 uM); 1.1537 in assay [1] (20 uM); 0.9326 in assay [1] (40 uM). Also, the “Burkin Assay in Myoblasts, signal relative to DMSO” value in assay [2] (0.5 uM) stood at 1.2055; in assay [2] (1 uM) it was 1.101; in assay [2] (5 uM), 1.3; in assay [2] (10 uM) it was 0.9734; in assay [2] (20 uM), 1.314; in assay [2] (40 uM) it was 1.226. Also, the “CMV-LACZ in Myoblasts (β-galactosidase activity relative to DMSO)” value in assay [3] (0.5 uM) is 0.8954; in assay [3] (1 uM), 0.7638; in assay [3] (5 uM), 0.9342; in assay [3] (10 uM) it was 0.9799; in assay [3] (20 uM), 0.9559; in assay [3] (40 uM) it was 1.2007. The “Burkin Assay in Myotubes, α7 integrin LacZ reporter signal relative to DMSO” value in assay [4] (0.5 uM) is given as 0.9647; in assay [4] (1 uM) it was 0.9664; in assay [4] (5 uM) it was 1.105; in assay [4] (10 uM) it was 0.9741; in assay [4] (20 uM), 0.935; in assay [4] (40 uM), 0.9301.
